Results on one compound are retold here after BindingDB's records for doi:10.1021/jm980551o (Novartis, 1999).

pIC50: −log10 of the molar value. Where only a bound is given, the exact number is not on record here.

One may read the pIC50 as the negative decadic logarithm of the IC50, by convention in mol/L. High values mean a low IC50, low ones a high IC50.

This test can be described thus: Inhibition of EGF-dependent mouse keratinocyte MK cell proliferation.

`COc1cc2ncnc(Nc3cccc(Cl)c3)c2cc1OC` had a pIC50 of over 7.00.
